We go through six molecules from ChEMBL document CHEMBL5244235, “Diarylpentanoids with antitumor activity: A critical review of structure-activity relationship studies” (Eur J Med Chem, 2020).

Assay [1] can be described thus: Antiproliferative activity against human Panel NCI-58 (58 carcinoma cell lines) assessed as cell growth inhibition. In kind it is functional.
Assay [2] concerns HCT-116. Kind of assay: Antiproliferative activity against human HCT-116 cells assessed as cell viability measured after 24 hrs by XTT assay. The class given is functional, cell-based. As to conditions: HCT-116, 24 h. (In general: Tetrazolium assays rely on reduction of a dye to a coloured formazan, in cell work by metabolically active cells.)
The test system of another assay is HT-29. Nature of the assay: Antiproliferative activity against human HT-29 cells assessed as cell viability measured after 24 hrs by XTT assay. In kind it is functional, cell-based. As to conditions: HT-29, 24 h.
A further assay has as its system RPMI-7951. Nature of the assay: Antiproliferative activity against human RPMI-7951 cells assessed as cell growth inhibition measured after 72 hrs by neutral red assay. The class given is functional.
For the next assay, the system named is MDA-MB-231. Nature of the assay: Antiproliferative activity against human MDA-MB-231 cells assessed as cell growth inhibition measured after 72 hrs by neutral red assay. In kind it is functional.
The test system of the next assay is NSCLC. Nature of the assay: Antiproliferative activity against human NSCLC cells assessed as cell growth inhibition measured after 72 hrs by neutral red assay. In kind it is functional.
Assay [3] has as its system Panel CNS (Carcinoma cell lines). Kind of assay: Antiproliferative activity against human Panel CNS (Carcinoma cell lines) assessed as cell growth inhibition measured after 72 hrs by neutral red assay. In kind it is functional.
Assay [4] relates to Panel leukemia (Carcinoma cell lines). Kind of assay: Antiproliferative activity against human Panel leukemia (Carcinoma cell lines) assessed as cell growth inhibition measured after 72 hrs by neutral red assay. The class given is functional.
Assay [5] deals with Panel colon (Carcinoma cell lines). Nature of the assay: Antiproliferative activity against human Panel colon (Carcinoma cell lines) assessed as cell growth inhibition measured after 72 hrs by neutral red assay. In kind it is functional.
Assay [6] has as its system Panel melanoma (Carcinoma cell lines). Nature of the assay: Antiproliferative activity against human Panel melanoma (Carcinoma cell lines) assessed as cell growth inhibition measured after 72 hrs by neutral red assay. In kind it is functional.
Assay [7] concerns Panel ovarian (Carcinoma cell lines). Kind of assay: Antiproliferative activity against human Panel ovarian (Carcinoma cell lines) assessed as cell growth inhibition measured after 72 hrs by neutral red assay. The class given is functional.
For assay [8], the system named is Panel renal (Carcinoma cell lines). Kind of assay: Antiproliferative activity against human Panel renal (Carcinoma cell lines) assessed as cell growth inhibition measured after 72 hrs by neutral red assay. In kind it is functional.
Assay [9] deals with Panel prostate (Carcinoma cell lines). Nature of the assay: Antiproliferative activity against human Panel prostate (Carcinoma cell lines) assessed as cell growth inhibition measured after 72 hrs by neutral red assay. The class given is functional.
For assay [10], the system named is Panel breast (Carcinoma cell lines). Nature of the assay: Antiproliferative activity against human Panel breast (Carcinoma cell lines) assessed as cell growth inhibition measured after 72 hrs by neutral red assay. The class given is functional.
For the next assay, the system named is SVR. Nature of the assay: Anti-angiogenesis activity in mouse SVR cells assessed as cell growth inhibition. In kind it is functional, cell-based.
Assay [11] is described as follows: Anti-angiogenesis activity in […] MS-1 cells assessed as cell growth inhibition. In kind it is functional, cell-based.
The next assay deals with HUVEC. Nature of the assay: Anti-angiogenesis activity in HUVEC cells assessed as cell growth inhibition. In kind it is functional, cell-based. As to conditions: Homo sapiens.
A further assay deals with A2780. Kind of assay: Antiproliferative activity against human A2780 cells assessed as cell viability at 10 uM measured after 24 hrs by MTT assay relative to control. The class given is functional. As to conditions: read-out: Activity.
For a further assay, the system named is A549. Nature of the assay: Antiproliferative activity against human A549 cells assessed as cell growth inhibition measured after 48 hrs by MTT assay. The class given is functional, cell-based. As to conditions: A549, 48 h.
For the next assay, the system named is NCI-H460. Kind of assay: Antiproliferative activity against human NCI-H460 cells assessed as cell growth inhibition measured after 48 hrs by MTT assay. As to conditions: NCI-H460, 48 h. The class given is functional, cell-based.
In the next assay the test system is Jurkat E6.1. Nature of the assay: Antiproliferative activity against human Jurkat E6.1 cells assessed as cell viability by WST-1 assay. The class given is functional, cell-based.
For another assay, the system named is U-937. Nature of the assay: Antiproliferative activity against human U-937 cells assessed as cell viability by WST-1 assay. The class given is functional, cell-based.
Another assay deals with SAOS-2. Nature of the assay: Antiproliferative activity against human SAOS-2 cells assessed as cell viability by WST-1 assay. In kind it is functional, cell-based.
Assay [12] has as its system HCT-116. Nature of the assay: Antiproliferative activity against human HCT-116 cells assessed as cell viability by WST-1 assay. In kind it is functional, cell-based.

The structures appear in SMILES notation. pIC50: −log10 of the molar value.

What is called GI50 is the concentration giving 50% growth inhibition. On to `CCOc1cc(/C=C2\CN(C)C/C(=C\c3ccc(O)c(OCC)c3)C2=O)ccc1O`, for which the GI50 in assay [1] amounted to 1400 nM.
As a reminder, the pIC50 is −log10 of the IC50, conventionally taken in molar units. As to `CN1C/C(=C\c2ccccn2)C(=O)/C(=C/c2ccccn2)C1`, the pIC50 in the assay with HCT-116 [2] and in the assay on HT-29 was 6.21 each time.
As for `O=C1/C(=C/c2ccccc2O)CCC/C1=C\c1ccccc1O`, the 50% growth inhibitory concentration (GI50) (with RPMI-7951; in the assay on MDA-MB-231; in the assay on NSCLC; in assay [3]; in assay [4]; in assay [5]) was 1600 nM throughout. Also, the GI50 in assay [6] stood at 1600 nM; in assay [7] it was 1600 nM; in [8], 1600 nM; in assay [9], 1600 nM; in assay [10] it was 1600 nM; with SVR, 2000 nM. Further, the GI50 (in assay [11]; in the assay on HUVEC) was 2000 nM in each case.
Take `CC1(C)C=C(CN2C/C(=C\c3ccc(F)cc3)C(=O)/C(=C/c3ccc(F)cc3)C2)C(C)(C)N1O`: in the assay on A2780, the viability at 10 µM was determined as 20%.
On to `O=C1/C(=C/c2ccccc2F)CCC/C1=C\c1ccccc1F`, for which the pIC50 in the assay on A549 is 4.52; with NCI-H460 it was 4.54.
As for `O=C1/C(=C/c2ccc(O)c(O)c2)COC/C1=C\c1ccc(O)c(O)c1`, the negative-log IC50 (pIC50) with Jurkat E6.1, with U-937, with SAOS-2 and with HCT-116 [12] was 5.84 in each case.
